Reference: ChEMBL document CHEMBL4007395 (J Med Chem, 2017)
pIC50: −log10 of the molar value.

Assays:
[1] = Half-life in Sprague-Dawley rat at 500 mg/kg, po by LC-MS/MS analysis; type: ADME, organism-based; conditions: in vivo
[2] = Oral bioavailability in Sprague-Dawley rat at 500 mg/kg by LC-MS/MS analysis; type: ADME, organism-based; conditions: in vivo
[3] = Half-life in Tris-HCl buffer at 70 uM at pH 7.5 by UV/Vis spectrophotometric method; type: physicochemical
[4] = Half-life in Tris-HCl buffer at 70 uM at pH 7.2 by UV/Vis spectrophotometric method; type: physicochemical
[5] = Inhibition of Escherichia coli AmpC beta-lactamase using CENTA as substrate preincubated for 5 mins followed by substrate addition by UV-vis spectrophotometric method
[6] = Inhibition of Escherichia coli AmpC beta-lactamase using CENTA as substrate preincubated for 5 mins followed by substrate addition in presence of nonionic detergent Triton-X-100 by UV-vis spectrophotometric method
[7] = Inhibition of malate dehydrogenase (unknown origin) using oxaloacetate as substrate preincubated for 5 mins followed by substrate addition by UV-vis spectrophotometric method; parameters: species or system Homo sapiens
[8] = Inhibition of malate dehydrogenase (unknown origin) using oxaloacetate as substrate preincubated for 5 mins followed by substrate addition in presence of nonionic detergent Triton-X-100 by UV-vis spectrophotometric method; parameters: species or system Homo sapiens
[9] = Inhibition of HIV-2 protease using anthranilyl-HIV protease as substrate preincubated for 5 mins followed by substrate addition by fluorescence assay; parameters: species or system Human immunodeficiency virus 2
[10] = Inhibition of HIV-2 protease using anthranilyl-HIV protease as substrate preincubated for 5 mins followed by substrate addition in presence of nonionic detergent Triton-X-100 by fluorescence assay; parameters: species or system Human immunodeficiency virus 2
[11] = Apparent permeability in human Caco2 cells; type: ADME, cell-based; conditions: Caco-2
[12] = biological target: Glycogen synthase kinase-3 beta (Rattus norvegicus, UniProt P18266); experiment: Inhibition of recombinant rat N-terminal GST-tagged GSK3beta expressed in Escherichia coli assessed as reduction in tau phosphorylation preincubated for 30 mins followed by tau protein addition measured after 1 hr by ELISA
Sequence of Glycogen synthase kinase-3 beta (P18266 whole entry): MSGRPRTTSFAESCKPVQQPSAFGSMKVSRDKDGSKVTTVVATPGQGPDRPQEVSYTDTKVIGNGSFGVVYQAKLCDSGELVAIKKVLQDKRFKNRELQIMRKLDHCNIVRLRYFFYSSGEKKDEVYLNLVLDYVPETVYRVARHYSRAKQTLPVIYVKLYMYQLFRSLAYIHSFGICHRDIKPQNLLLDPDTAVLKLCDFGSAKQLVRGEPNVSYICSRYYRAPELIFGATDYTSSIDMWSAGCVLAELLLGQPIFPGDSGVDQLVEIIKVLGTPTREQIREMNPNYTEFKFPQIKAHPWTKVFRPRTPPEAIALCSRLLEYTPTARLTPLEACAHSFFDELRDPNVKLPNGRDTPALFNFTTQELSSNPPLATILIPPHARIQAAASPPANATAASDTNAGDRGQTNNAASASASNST

Mus musculus = experiment: Cmax in mouse at 100 mg/kg, po after 30 mins; type: ADME, organism-based; parameters: dose 100 mg/kg, route oral; conditions: in vivo, 0.5 h
[13] = Cmax in human at 12 g, po administered as single dose capsule after 2 hrs by UV-HPLC method; type: ADME, organism-based; parameters: dose 12 g, route oral; conditions: in vivo
[14] = Drug uptake in human rectal mucosa assessed per gram protein at 2 g/day for 30 days; type: ADME; conditions: 720 h
[15] = Drug uptake in human rectal mucosa assessed per gram protein at 4 g/day for 30 days; type: ADME; conditions: 720 h
Plasma [16] = experiment: Plasma concentration in human at 8 g/day, po by HPLC/TMS; type: ADME, organism-based; conditions: in vivo
Homo sapiens [17] = organism: Homo sapiens; experiment: Effect on total aberrant foci number in human colon cancer patient at 2 g/day for 30 days during phase IIa study by colonoscopic analysis; type: functional
Homo sapiens [18] = organism: Homo sapiens; experiment: Effect on total aberrant foci number in human colon cancer patient at 4 g/day for 30 days during phase IIa trial by colonoscopic analysis; type: functional
[19] = Plasma concentration in human at 3.6 g, po administered as capsule measured at 1 hr post dose by UV-RP-HPLC method; type: ADME, organism-based
Plasma [20] = experiment: Drug metabolism in human plasma assessed as curcumin sulfate formation at 3.6 g, po administered as capsule measured at 1 hr post dose by UV-HPLC-MS analysis; type: ADME, organism-based; conditions: in vivo
Plasma [21] = experiment: Drug metabolism in human plasma assessed as curcumin glucuronide formation at 3.6 g, po administered as capsule measured at 1 hr post dose by UV-HPLC-MS analysis; type: ADME, organism-based; conditions: in vivo

- half-life [1]: < 5 min
- bioavailability [2]: < 1%
- half-life at 70 µM [3]: 20 min
- half-life at 70 µM [4]: < 10 min
- pIC50 [5]: 4.92
- pIC50 [6]: < 4.52
- pIC50 [7]: 5.05
- pIC50 [8]: < 4.52
- pIC50 [9]: 5.05
- pIC50 [10]: < 4.00
- Papp [11]: 3.18 ×10⁻⁶ cm/s
- pIC50 [12]: 7.18
- Cmax (Mus musculus): 60 nM
- Cmax [13]: 57.6 ng/mL
- Drug uptake [14]: 8.2 µg
- Drug uptake [15]: 3.8 µg
- Cp (Plasma [16]): 22 to 41 ng/mL
- concentration at 1 h [19]: 11.1 ng/mL
- Drug metabolism (Plasma [20]): 8.9 nmol/L
- Drug metabolism (Plasma [21]): 15.8 nmol/L
SMILES: COc1cc(/C=C/C(=O)CC(=O)/C=C/c2ccc(O)c(OC)c2)ccc1O [CURCUMIN]
- Activity (Homo sapiens [17]): 0
- Activity (Homo sapiens [18]): 6
